Reference: US20180099031A1, “DIABETES TREATMENT” (BETH ISRAEL DEACONESS MEDICAL CENTER, priority 2013, published 2018)

Test system: New onset diabetic NOD mice
Experiment: α1 anti-trypsin treatment of new onset diabetic NOD mice, blood glucose levels
Assay type: in vivo
Text: Female NOD (NOD/LtJx) mice and NOD.SCID (NOD.CB17-Prkdcscid/J) mice were purchased from Jackson Laboratories (Bar Harbor, Me.) at 4 wks of age and maintained under pathogen-free conditions at the Harvard Institutes of Medicine (Boston, Mass.). The Harvard Medical School institutional review board approved all animal studies.
Blood glucose levels of NOD mice were monitored twice weekly with the Accu-Check blood glucose monitor system (Roche, Indianapolis, Ind.). When non-fasting blood glucose levels were in excess of 200 mg/dl on three consecutive measurements a diagnosis of new onset of diabetes was made. Mice with blood glucose levels between 250 to 350 mg/dl were used for the experiment described below. […] The 25% residual beta cell mass is similar to that found in newly diagnosed patients with T1DM.
New onset diabetic NOD mice were divided into two groups and treated with α1 anti-trypsin while simultaneously receiving intense insulin treatment (Group 1) or implantable insulin pellets (Group 2).
For the animals in Group 1, insulin doses were calibrated on the basis of three blood glucose measurements per day. The goal was to maintain blood glucose levels between 100-160 mg/dl. For blood glucose levels in excess of 160 mg/dl, NPH insulin was administered i.p. in doses ranging from 1 to 4 International Units depending upon the magnitude of hyperglycemia. For blood glucose level between 160 and 200 mg/dl, 1 IU was given. For blood glucose levels between 200 and 250 mg/dl, 2 IU of NPH insulin were given. For blood glucose levels between 250 and 300 mg/dl, 2 IU of NPH insulin were given. For blood glucose levels between 300 and 350 mg/dl, 3 IU of NPH insulin were given. For blood glucose levels in excess of 350 mg/dl, 4 IU of NPH insulin were given. Mice with high blood glucose levels in excess of 400 mg/dl for 2 days also received 0.2-0.4 ml warm normal saline subcutaneously in order to treat glycosuria-associated dehydration.
The animals in Group 2, LinBit™ sustained release insulin implants were used for management of hyperglycemia. LinBit™ sustained release insulin implants were purchased from LinShin Canada Inc. The LinBit™ implants (3-mm in length and 2 mm in diameter) were made from an admixture of insulin and micro-recrystallized palmitic acid and were erodible in vivo after being placed subcutaneously. The insulin release rate was about 0.1 U/day/implant for the time period over 2-4 weeks.
In our experiments, one or 2 LinBit™ implants were placed subcutaneously under the mid dorsal skin in newly onset diabetic mice with 3 previous measurements of blood glucose levels >200 mg/dL. The mice were anesthesized with ketamine/xylazine and the hair on the dorsal skin from a spot about 1 cm^2 was clipped using a small scissors with curved tips. […]

Q: With “α1 anti-trypsin: Aralast NP, a human α1-proteinase inhibitor derived from pooled human plasma, purchased from Baxter” as the substance, how does the blood glucose levels (Group 1: with intense insulin therapy (NPH insulin i.p., three glucose measurements per day), Aralast NP 2 mg i.p. every 3 days, five injections, experiment 60-100 days, FIG. 1) read?
A: Its blood glucose levels is “fell to normoglycemic levels shortly after treatment began and remained at normal levels for the entire duration of the experiment”.

Q: And the “blood glucose levels shortly after treatment began” value (Group 2: with LinBit insulin implants s.c., Aralast NP 2 mg i.p. every 3 days, five injections, FIG. 2)?
A: Its value is “fell to normoglycemic levels shortly after treatment began”.

Q: And the “effect on diabetic state” value (glucose levels maintained within normal limits (50-120 mg/dL) by intensive insulin therapy)?
A: Its value is “curative effect”.

Q: What about the “effect on diabetic state” value (hyperglycemic state managed by subcutaneously placed insulin pellets) of the same substance?
A: The value was “less effective”.
